In article PMC11876671, “Investigating blood–brain barrier penetration and neurotoxicity of natural products for central nervous system drug development” (Scientific Reports, 2025):
Where two headings read alike, the source gives them in different places.

Legend:
[1] = test system: GFP-labeled iPSC-derived human cortical glutamatergic neurons; experiment: cells; format: cell-based; conditions: for inhibition of cortical neurite outgrowth (total neurite length): 24 and 48 h treatment, in words
[2] = test system: GFP-labeled iPSC-derived human cortical glutamatergic neurons; conditions: for AC50: read-out: Viability AC50 (48hr); for effect on number of objects: in words
in vitro = conditions: PAMPA, PAMPA-BBB Pe
[3] = test system: human glial and neuroblastoma cell lines; conditions: malignant glioma tumor cells; cited from earlier work
[4] = test system: glioblastoma multiforme (GBM); conditions: mouse, in vivo, ip; cited from earlier work
[5] = test system: GFP-labeled iPSC-derived human cortical glutamatergic neurons; experiment: cells; conditions: Neuron, 48 h
offspring neurogenesis = conditions: rat, in vivo, po; cited from earlier work
[6] = Table S1, 60 min, room temperature, 0.05 mM
[7] = Table 1, 60 min, room temperature, 0.05 mM
[8] = Table S2: compounds exhibiting moderate to high PAMPA-BBB permeability
[9] = Homo sapiens, Neuron, rounded values, read-out: AC50 (neurite outgrowth inhibition)
[10] = Homo sapiens, Neuron, total neurite length, 48 h treatment, read-out: TNL AC50 (48 h)
[11] = read-out: Viability AC50 (48 h)
[12] = read-out: Viability AC50 (48hr)
[13] = Homo sapiens, Neuron, Table S1, total neurite length, 48 hr, head prints no unit, µM per Table 1 and Fig. 5, read-out: TNL AC50 (48 hr)

Row | Molecule | Papp (in vitro; [6]) [×10⁻⁶ cm/s] | PAMPA-BBB Pe [7] | PAMPA-BBB Pe [8] | AC50 [1, 9] [µM] | AC50 [1, 10] [µM] | AC50 [5, 11] [nM] | AC50 [5, 12] [nM] | AC50 [1, 13] [µM] | other results
1 | 2 ,4 -DIHYDROXYCHALCONE | – | – | – | – | – | – | – | – | PAMPA-BBB Pe [6]: 222.92 10^-6 cm/sec; AC50 ([1]; Table S1, total neurite length, 48 hr, head prints no unit, µM per Table 1 and Fig. 5, read-out: TNL AC50 (48 hr)): 16.9 µM; AC50 ([2]; Table S1, 48 hr, head prints no unit, µM per Table 1 and Fig. 5): 20.9 µM
2 | COc1ccc(-c2cc(=O)c3ccccc3o2)cc1OC [3’,4’-dimethoxyflavone] | 249 | 249.21 10 × 10^− 6 cm/sec | 249 10^-6 cm/sec | 0.7 | 0.759 | – | – | – | Viability AC50 (48 h) ([2]; 48 h treatment): inactive
3 | C/C=C(\C)C(=O)N[C@@H](c1ccccc1)[C@@H](O)C(=O)O[C@H]1C[C@@]2(O)[C@@H](OC(=O)c3ccccc3)[C@@H]3[C@]4(OC(C)=O)CO[C@@H]4C[C@H](O)[C@@]3(C)C(=O)[C@H](OC(C)=O)C(=C1C)C2(C)C [Cephalomannine] | 78.6 | 78.57 10 × 10^− 6 cm/sec | 79 10^-6 cm/sec | 0.7 | 0.688 | – | – | – | cytotoxicity relative to taxol (less cytotoxic) [3]: ~ 35%; Viability AC50 (48 h) ([2]; 48 h treatment): inactive
4 | COc1cc(-c2cc(=O)c3c(O)cc(O)cc3o2)ccc1O [Chrysoeriol] | 179 | 178.56 10 × 10^− 6 cm/sec | – | 2.2 | 2.22 | – | – | – | Viability AC50 (48 h) ([2]; 48 h treatment): inactive
5 | CC(=O)O[C@H]1[C@H]2O[C@]23[C@@H]2CC[C@@H]4C[C@@H](O)CC[C@]4(C)[C@H]2CC[C@]3(C)[C@H]1c1ccc(=O)oc1 [Cinobufagin] | – | – | – | – | – | 93 | – | – | decrease in luminescence intensity of the brain tumor [4]: 70%; Papp (in vitro): 45.4 ×10⁻⁶ cm/s; AC50 ([1]; Homo sapiens, Neuron, 48 h, read-out: TNL AC50 (48 h)): 0.618 µM; AC50 ([1]; Homo sapiens, Neuron, read-out: AC50 (neurite outgrowth inhibition)): 0.6 µM
6 | O=c1oc2c(O)c(O)cc3c(=O)oc4c(O)c(O)cc1c4c23 [Ellagic acid] | 120 | 119.5 10 × 10^− 6 cm/sec | 120 10^-6 cm/sec | 3.1 | 3.05 | 4000 | – | – | inhibition of cortical neurite outgrowth (total neurite length) [1]: inhibited cortical neurite outgrowth; effect on number of objects ([2]; 48 h treatment): minimal effects
7 | COc1cc(O)c2c(c1)C1OC1C[C@H](O)[C@H](O)C(=O)C=CC[C@H](C)OC2=O (stereo partly shown) [NCGC00183677-03] | 69.3 | – | 69 10^-6 cm/sec | – | – | – | 28200 | 35.9 | –
8 | COc1ccc(-c2coc3c(O)c(O)c(OC)cc3c2=O)cc1 [NCGC00264029-02] | 40.1 | – | 40 10^-6 cm/sec | – | – | – | 25600 | 30.1 | –
9 | Cc1c(O)c(O)cc2c1CC=C1[C@@]2(C)CC[C@@]2(C)[C@H]3C[C@](C)(C(=O)O)CC[C@]3(C)CC[C@]12C [NCGC00264082-02] | 288 | – | 288 10^-6 cm/sec | – | – | – | 4300 | 2.37 | –
10 | O=c1cc(N2CCOCC2)oc2c(-c3cccc4c3sc3ccccc34)cccc12 [NU-7441, 8-(4-DIBENZOTHIENYL)-2-(4-MORPHOLINYL)-4H-1-BENZOPYRAN-4-ONE, reference compound] | 102 | 101.9 10 × 10^− 6 cm/sec | – | – | 2.85 | 7600 | 7600 | 2.85 | –
11 | C=C(C)[C@@H]1CCC2=CC(=O)C[C@@H](C)[C@]2(C)C1 [Nootkatone] | 63.3 | – | 63 10^-6 cm/sec | – | – | – | 3980 | 13.1 | –
12 | COc1ccc2c(c1OC)C(=O)O[C@@H]2[C@H]1c2c(cc3c(c2OC)OCO3)CCN1C [Noscapine, reference compound] | – | – | – | 1.1 | 1.06 | 11600 | 11600 | 1.06 | Papp (in vitro): 74.5 ×10⁻⁶ cm/s; PAMPA-BBB Pe (PAMPA): 74.54 10 × 10^− 6 cm/sec
13 | C/C(=C\c1csc(C)n1)[C@@H]1C[C@@H]2O[C@]2(C)CCC[C@H](C)[C@H](O)[C@@H](C)C(=O)C(C)(C)[C@@H](O)CC(=O)O1 [Patupilone] | 10.5 | 10.52 10 × 10^− 6 cm/sec | – | – | 0.007 | – | – | 0.0068 | Papp (in vitro; [8]): 11 ×10⁻⁶ cm/s; Viability AC50 (48 h) ([2]; 48 h treatment): inactive
14 | COc1cc(/C=C/C(=O)N2CCC=CC2=O)cc(OC)c1OC [Piperlongumine] | 90.3 | 90.26 10 × 10^− 6 cm/sec | – | – | 3.74 | – | – | – | Papp (in vitro; [8]): 90 ×10⁻⁶ cm/s; Viability AC50 (48 h) ([2]; 48 h treatment): Inactive
15 | CC1=CC(=O)c2c(O)cccc2C1=O [Plumbagin] | 68.8 | 68.8 10 × 10^− 6 cm/sec | 69 10^-6 cm/sec | 0.9 | 0.927 | 1320 | – | – | inhibition of cortical neurite outgrowth (total neurite length) [1]: inhibited cortical neurite outgrowth; effect on number of objects ([2]; 48 h treatment): minimal effects
16 | COC(=O)[C@H]1[C@H]2C[C@@H]3c4[nH]c5cc(OC)ccc5c4CCN3C[C@H]2C[C@@H](OC(=O)c2cc(OC)c(OC)c(OC)c2)[C@@H]1OC [Reserpine, reference compound] | – | – | – | – | – | – | 35200 | 31.8 | Papp (in vitro): 90.1 ×10⁻⁶ cm/s; PAMPA-BBB Pe (PAMPA): 90 10^-6 cm/sec
17 | COc1cc2c(c3oc4cccc(O)c4c(=O)c13)[C@@H]1C=CO[C@@H]1O2 [Sterigmatocystin] | – | – | – | – | – | – | – | – | adverse effects on offspring neurogenesis (offspring neurogenesis): no adverse effects; Papp (in vitro): 221 ×10⁻⁶ cm/s; PAMPA-BBB Pe (PAMPA): 221 10 × 10^− 6 cm/sec; AC50 ([1]; read-out: AC50 (neurite outgrowth inhibition)): 2.3 µM; AC50 ([1]; read-out: TNL AC50 (48 h)): 2.32 µM; AC50 ([1]; read-out: TNL AC50 (48 hr)): 2.32 µM; Viability AC50 (48 h) [2]: inactive
18 | C=CC[C@@H]1/C=C(\C)C[C@H](C)C[C@H](OC)[C@H]2O[C@@](O)(C(=O)C(=O)N3CCCC[C@H]3C(=O)O[C@H](/C(C)=C/[C@@H]3CC[C@@H](O)[C@H](OC)C3)[C@H](C)[C@@H](O)CC1=O)[C@H](C)C[C@@H]2OC [Tacrolimus, reference compound] | 154 | 154.13 10 × 10^− 6 cm/sec | 154 10^-6 cm/sec | – | 2.65 | 4190 | 4190 | 2.65 | –
19 | CC(/C=C/C(=O)NO)=C\[C@@H](C)C(=O)c1ccc(N(C)C)cc1 [Trichostatin A] | 54.7 | 54.74 10 × 10^− 6 cm/sec | 55 10^-6 cm/sec | 1.7 | 1.66 | 472 | – | – | –
20 | CC[C@]1(O)C[C@H]2CN(CCc3c([nH]c4ccccc34)[C@@](C(=O)OC)(c3cc4c(cc3OC)N(C=O)[C@H]3[C@@](O)(C(=O)OC)[C@H](OC(C)=O)[C@]5(CC)C=CCN6CC[C@]43[C@@H]65)C2)C1 [Vincristine, reference compound] | – | – | – | – | – | – | – | – | PAMPA-BBB Pe (PAMPA): 21.19 10^-6 cm/sec; AC50 ([1]; read-out: TNL AC50 (48 hr)): 30.4 µM; AC50 [2]: 37.2 µM
